Measured values published in publication PMC6120666 (The EMBO Journal, 2018).

How the values were obtained:
Test in all cases: Drug affinity chromatography with c-ponatinib and LC-MS/MS (ponatinib interactome)
Format in all cases: binding
[1] = target: T1, proteins of U2OS cell lysate (Homo sapiens, UniProt Q9Y224); conditions: C14orf166, UPF0568 protein C14orf166
T1 construct: Proteins enriched by c-ponatinib from U2OS cell lysate; endogenous in cells; host or cells: U2OS cell lysate
Procedure, shortened: (§1)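 U2OS cell lysate in NP-40 lysis buffer (2 mg protein per pulldown) was incubated with amine-derivatized NHS beads for 2 h at 4 °C. Bound proteins were washed, eluted with 100 mM formic acid, reduced, alkylated and trypsin-digested, then identified by nano-UPLC–MS/MS on Orbitrap instruments with a 60 min gradient.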

[2] = target: T2, proteins of U2OS cell lysate (Homo sapiens, UniProt P07814); conditions: EPRS, Bifunctional glutamate/proline--tRNA ligase
T2 construct: Proteins enriched by c-ponatinib from U2OS cell lysate; endogenous in cells; host or cells: U2OS cell lysate
T2 sequence (P07814 whole entry): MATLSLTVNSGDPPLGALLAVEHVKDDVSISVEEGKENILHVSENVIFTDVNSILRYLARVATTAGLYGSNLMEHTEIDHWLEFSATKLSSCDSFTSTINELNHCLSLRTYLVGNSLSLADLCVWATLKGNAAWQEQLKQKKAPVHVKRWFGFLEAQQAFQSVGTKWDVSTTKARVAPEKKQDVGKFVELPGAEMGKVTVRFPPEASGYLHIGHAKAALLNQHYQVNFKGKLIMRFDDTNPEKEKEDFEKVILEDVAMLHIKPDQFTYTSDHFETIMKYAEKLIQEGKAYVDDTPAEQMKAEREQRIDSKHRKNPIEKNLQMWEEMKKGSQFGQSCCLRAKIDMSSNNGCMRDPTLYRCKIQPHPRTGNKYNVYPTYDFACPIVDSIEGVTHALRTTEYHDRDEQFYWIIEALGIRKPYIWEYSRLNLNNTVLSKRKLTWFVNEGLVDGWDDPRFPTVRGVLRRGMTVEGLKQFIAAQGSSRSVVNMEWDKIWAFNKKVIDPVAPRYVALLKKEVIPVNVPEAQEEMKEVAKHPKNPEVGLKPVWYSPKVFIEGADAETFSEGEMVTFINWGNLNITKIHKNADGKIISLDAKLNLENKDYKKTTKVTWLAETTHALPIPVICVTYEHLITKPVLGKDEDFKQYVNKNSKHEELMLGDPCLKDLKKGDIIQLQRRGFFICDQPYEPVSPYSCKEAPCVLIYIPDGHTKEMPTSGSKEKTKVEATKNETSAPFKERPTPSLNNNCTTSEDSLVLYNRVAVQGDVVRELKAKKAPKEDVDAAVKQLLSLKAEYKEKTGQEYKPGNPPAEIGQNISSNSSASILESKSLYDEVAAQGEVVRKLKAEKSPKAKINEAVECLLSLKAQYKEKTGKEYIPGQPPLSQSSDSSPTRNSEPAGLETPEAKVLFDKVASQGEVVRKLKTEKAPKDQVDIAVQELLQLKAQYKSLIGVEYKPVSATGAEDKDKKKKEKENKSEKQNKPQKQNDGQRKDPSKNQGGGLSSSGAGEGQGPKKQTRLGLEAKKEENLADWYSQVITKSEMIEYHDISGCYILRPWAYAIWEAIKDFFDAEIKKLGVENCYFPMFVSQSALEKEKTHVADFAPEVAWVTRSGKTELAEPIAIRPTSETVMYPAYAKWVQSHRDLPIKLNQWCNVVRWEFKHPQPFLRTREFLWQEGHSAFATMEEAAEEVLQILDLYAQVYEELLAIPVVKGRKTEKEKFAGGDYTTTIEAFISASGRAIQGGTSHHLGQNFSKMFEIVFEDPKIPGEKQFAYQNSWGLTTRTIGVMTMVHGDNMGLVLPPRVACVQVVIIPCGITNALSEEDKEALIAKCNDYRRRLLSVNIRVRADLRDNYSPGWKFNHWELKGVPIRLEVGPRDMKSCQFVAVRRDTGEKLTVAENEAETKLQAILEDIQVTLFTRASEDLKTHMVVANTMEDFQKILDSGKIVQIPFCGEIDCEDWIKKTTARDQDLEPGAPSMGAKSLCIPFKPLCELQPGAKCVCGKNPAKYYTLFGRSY
Procedure, shortened: as §1

[3] = target: T3, proteins of U2OS cell lysate (Homo sapiens, UniProt P04843); conditions: RPN1, Dolichyl-diphosphooligosaccharide--protein glycosyltransferase subunit 1
T3 construct: Proteins enriched by c-ponatinib from U2OS cell lysate; endogenous in cells; host or cells: U2OS cell lysate
T3 sequence (P04843 24-607): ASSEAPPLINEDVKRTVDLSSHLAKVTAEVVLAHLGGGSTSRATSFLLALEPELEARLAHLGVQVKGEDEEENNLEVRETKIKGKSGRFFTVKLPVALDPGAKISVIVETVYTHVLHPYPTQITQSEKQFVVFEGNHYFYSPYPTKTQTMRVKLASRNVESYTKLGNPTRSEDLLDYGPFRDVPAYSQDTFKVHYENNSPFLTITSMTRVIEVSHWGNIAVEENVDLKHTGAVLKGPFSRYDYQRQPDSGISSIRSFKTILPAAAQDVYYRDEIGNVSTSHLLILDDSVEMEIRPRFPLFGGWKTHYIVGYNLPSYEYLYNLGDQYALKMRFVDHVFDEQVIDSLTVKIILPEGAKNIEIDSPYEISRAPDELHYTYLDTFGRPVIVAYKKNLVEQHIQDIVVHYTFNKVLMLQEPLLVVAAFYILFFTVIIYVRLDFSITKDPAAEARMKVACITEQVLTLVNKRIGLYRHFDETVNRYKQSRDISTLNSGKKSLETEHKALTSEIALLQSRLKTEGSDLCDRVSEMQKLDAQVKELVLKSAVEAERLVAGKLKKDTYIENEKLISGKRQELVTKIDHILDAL
Procedure, shortened: as §1

[4] = target: T4, proteins of U2OS cell lysate (Homo sapiens, UniProt Q13561); conditions: DCTN2, Dynactin subunit 2
T4 construct: Proteins enriched by c-ponatinib from U2OS cell lysate; endogenous in cells; host or cells: U2OS cell lysate
T4 sequence (Q13561 whole entry): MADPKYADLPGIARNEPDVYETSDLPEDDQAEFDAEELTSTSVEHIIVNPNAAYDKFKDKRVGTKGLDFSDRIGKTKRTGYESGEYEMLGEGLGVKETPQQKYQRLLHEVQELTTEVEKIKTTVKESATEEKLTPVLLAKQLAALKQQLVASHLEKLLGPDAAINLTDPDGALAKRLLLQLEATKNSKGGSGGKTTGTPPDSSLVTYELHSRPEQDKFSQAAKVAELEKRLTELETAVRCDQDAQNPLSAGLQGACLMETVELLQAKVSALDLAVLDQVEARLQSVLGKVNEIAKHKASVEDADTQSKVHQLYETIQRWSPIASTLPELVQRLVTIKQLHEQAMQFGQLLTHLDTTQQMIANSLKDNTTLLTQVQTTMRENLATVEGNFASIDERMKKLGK
Procedure, shortened: as §1

[5] = target: T5, proteins of U2OS cell lysate (Homo sapiens, UniProt P47914); conditions: RPL29, 60S ribosomal protein L29
T5 construct: Proteins enriched by c-ponatinib from U2OS cell lysate; endogenous in cells; host or cells: U2OS cell lysate
Procedure, shortened: as §1

[6] = target: T6, proteins of U2OS cell lysate (Homo sapiens, UniProt P61981); conditions: YWHAG, 14-3-3 protein gamma
T6 construct: Proteins enriched by c-ponatinib from U2OS cell lysate; endogenous in cells; host or cells: U2OS cell lysate
Procedure, shortened: as §1

[7] = target: T7, proteins of U2OS cell lysate (Homo sapiens, UniProt P02545); conditions: LMNA, Prelamin-A/C;Lamin-A/C
T7 construct: Proteins enriched by c-ponatinib from U2OS cell lysate; endogenous in cells; host or cells: U2OS cell lysate
T7 sequence (P02545 whole entry): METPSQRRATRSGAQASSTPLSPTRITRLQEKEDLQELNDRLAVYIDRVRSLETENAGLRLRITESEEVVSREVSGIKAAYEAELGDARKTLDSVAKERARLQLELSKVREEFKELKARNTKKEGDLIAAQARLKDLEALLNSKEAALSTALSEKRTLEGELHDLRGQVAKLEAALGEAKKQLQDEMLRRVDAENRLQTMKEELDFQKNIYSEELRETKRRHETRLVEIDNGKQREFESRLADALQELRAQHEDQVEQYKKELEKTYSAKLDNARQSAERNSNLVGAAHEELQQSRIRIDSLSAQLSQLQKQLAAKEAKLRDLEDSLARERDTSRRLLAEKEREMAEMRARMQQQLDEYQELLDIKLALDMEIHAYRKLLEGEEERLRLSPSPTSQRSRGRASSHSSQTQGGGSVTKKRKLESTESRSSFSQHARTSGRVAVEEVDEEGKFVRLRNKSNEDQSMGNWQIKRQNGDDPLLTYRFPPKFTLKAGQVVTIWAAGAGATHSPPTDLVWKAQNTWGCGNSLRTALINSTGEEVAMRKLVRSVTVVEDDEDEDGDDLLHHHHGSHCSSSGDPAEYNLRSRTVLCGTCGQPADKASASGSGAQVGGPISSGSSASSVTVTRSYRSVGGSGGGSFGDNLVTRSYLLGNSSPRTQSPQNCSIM
Procedure, shortened: as §1

[8] = target: T8, proteins of U2OS cell lysate (Homo sapiens, UniProt O95292); conditions: VAPB, Vesicle-associated membrane protein-associated protein B/C
T8 construct: Proteins enriched by c-ponatinib from U2OS cell lysate; endogenous in cells; host or cells: U2OS cell lysate
T8 sequence (O95292 whole entry): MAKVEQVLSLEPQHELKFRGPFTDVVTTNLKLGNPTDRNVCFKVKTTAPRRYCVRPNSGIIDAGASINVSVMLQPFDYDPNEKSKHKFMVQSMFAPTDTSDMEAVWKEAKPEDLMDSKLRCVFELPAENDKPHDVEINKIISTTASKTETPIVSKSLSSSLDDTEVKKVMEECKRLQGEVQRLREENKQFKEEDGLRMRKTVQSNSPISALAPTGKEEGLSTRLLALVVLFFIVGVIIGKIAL
Procedure, shortened: as §1

[9] = target: T9, proteins of U2OS cell lysate (Homo sapiens, UniProt P47897); conditions: QARS, Glutamine--tRNA ligase
T9 construct: Proteins enriched by c-ponatinib from U2OS cell lysate; endogenous in cells; host or cells: U2OS cell lysate
Procedure, shortened: as §1

[10] = target: T10, proteins of U2OS cell lysate (Homo sapiens, UniProt O14976); conditions: GAK, Cyclin-G-associated kinase
T10 construct: Proteins enriched by c-ponatinib from U2OS cell lysate; endogenous in cells; host or cells: U2OS cell lysate
Procedure, shortened: as §1

[11] = target: T11, proteins of U2OS cell lysate (Homo sapiens, UniProt P10809); conditions: HSPD1, 60 kDa heat shock protein, mitochondrial
T11 construct: Proteins enriched by c-ponatinib from U2OS cell lysate; endogenous in cells; host or cells: U2OS cell lysate
Procedure, shortened: as §1

[12] = target: T12, proteins of U2OS cell lysate (Homo sapiens, UniProt Q15365); conditions: PCBP1, Poly(rC)-binding protein 1
T12 construct: Proteins enriched by c-ponatinib from U2OS cell lysate; endogenous in cells; host or cells: U2OS cell lysate
T12 sequence (Q15365 whole entry): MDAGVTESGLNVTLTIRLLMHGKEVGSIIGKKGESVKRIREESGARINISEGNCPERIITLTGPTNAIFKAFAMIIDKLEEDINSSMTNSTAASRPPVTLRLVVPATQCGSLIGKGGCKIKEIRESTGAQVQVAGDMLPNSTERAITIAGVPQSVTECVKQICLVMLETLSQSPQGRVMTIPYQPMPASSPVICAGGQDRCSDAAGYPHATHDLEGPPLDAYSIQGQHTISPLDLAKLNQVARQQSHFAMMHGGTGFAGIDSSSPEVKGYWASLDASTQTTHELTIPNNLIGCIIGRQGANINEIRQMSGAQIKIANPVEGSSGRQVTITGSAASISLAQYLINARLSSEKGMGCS
Procedure, shortened: as §1

[13] = target: T13, proteins of U2OS cell lysate (Homo sapiens, UniProt P27707); conditions: DCK, Deoxycytidine kinase
T13 construct: Proteins enriched by c-ponatinib from U2OS cell lysate; endogenous in cells; host or cells: U2OS cell lysate
T13 sequence (P27707 whole entry): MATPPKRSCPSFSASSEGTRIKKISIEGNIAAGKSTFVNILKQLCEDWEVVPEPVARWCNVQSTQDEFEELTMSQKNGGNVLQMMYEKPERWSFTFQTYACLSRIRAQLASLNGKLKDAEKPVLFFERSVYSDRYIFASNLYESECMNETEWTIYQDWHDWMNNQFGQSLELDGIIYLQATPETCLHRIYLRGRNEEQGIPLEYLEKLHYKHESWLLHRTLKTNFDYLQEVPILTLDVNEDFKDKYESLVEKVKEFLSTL
Procedure, shortened: as §1

[14] = target: T14, proteins of U2OS cell lysate (Homo sapiens, UniProt Q9UJZ1); conditions: STOML2, Stomatin-like protein 2, mitochondrial
T14 construct: Proteins enriched by c-ponatinib from U2OS cell lysate; endogenous in cells; host or cells: U2OS cell lysate
Procedure, shortened: as §1

[15] = target: T15, proteins of U2OS cell lysate (Homo sapiens, UniProt P35659); conditions: DEK, Protein DEK
T15 construct: Proteins enriched by c-ponatinib from U2OS cell lysate; endogenous in cells; host or cells: U2OS cell lysate
T15 sequence (P35659 whole entry): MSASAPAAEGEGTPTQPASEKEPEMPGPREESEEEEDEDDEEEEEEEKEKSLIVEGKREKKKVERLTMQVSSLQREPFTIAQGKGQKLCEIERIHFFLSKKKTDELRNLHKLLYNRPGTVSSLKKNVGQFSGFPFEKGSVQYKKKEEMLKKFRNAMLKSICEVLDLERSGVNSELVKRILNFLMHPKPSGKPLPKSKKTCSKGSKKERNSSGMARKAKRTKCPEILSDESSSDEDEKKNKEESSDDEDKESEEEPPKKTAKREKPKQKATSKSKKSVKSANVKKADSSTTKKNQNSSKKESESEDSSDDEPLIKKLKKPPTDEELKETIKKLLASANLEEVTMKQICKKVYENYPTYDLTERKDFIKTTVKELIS
Procedure, shortened: as §1

[16] = target: T16, proteins of U2OS cell lysate (Homo sapiens, UniProt P04792); conditions: HSPB1, Heat shock protein beta-1
T16 construct: Proteins enriched by c-ponatinib from U2OS cell lysate; endogenous in cells; host or cells: U2OS cell lysate
T16 sequence (P04792 whole entry): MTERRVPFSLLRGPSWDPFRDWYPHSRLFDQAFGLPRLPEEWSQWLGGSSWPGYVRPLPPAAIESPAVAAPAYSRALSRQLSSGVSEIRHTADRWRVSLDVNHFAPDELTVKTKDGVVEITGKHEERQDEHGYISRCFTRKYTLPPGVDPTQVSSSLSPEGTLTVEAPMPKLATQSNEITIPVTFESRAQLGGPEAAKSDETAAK
Procedure, shortened: as §1

[17] = target: T17, proteins of U2OS cell lysate (Homo sapiens, UniProt P62241); conditions: RPS8, 40S ribosomal protein S8
T17 construct: Proteins enriched by c-ponatinib from U2OS cell lysate; endogenous in cells; host or cells: U2OS cell lysate
Procedure, shortened: as §1

[18] = target: T18, proteins of U2OS cell lysate (Homo sapiens, UniProt P15880); conditions: RPS2, 40S ribosomal protein S2
T18 construct: Proteins enriched by c-ponatinib from U2OS cell lysate; endogenous in cells; host or cells: U2OS cell lysate
Procedure, shortened: as §1

[19] = target: T19, proteins of U2OS cell lysate (Homo sapiens, UniProt Q9UIA9); conditions: XPO7, Exportin-7
T19 construct: Proteins enriched by c-ponatinib from U2OS cell lysate; endogenous in cells; host or cells: U2OS cell lysate
Procedure, shortened: as §1

T1 sequence (Q9Y224 whole entry): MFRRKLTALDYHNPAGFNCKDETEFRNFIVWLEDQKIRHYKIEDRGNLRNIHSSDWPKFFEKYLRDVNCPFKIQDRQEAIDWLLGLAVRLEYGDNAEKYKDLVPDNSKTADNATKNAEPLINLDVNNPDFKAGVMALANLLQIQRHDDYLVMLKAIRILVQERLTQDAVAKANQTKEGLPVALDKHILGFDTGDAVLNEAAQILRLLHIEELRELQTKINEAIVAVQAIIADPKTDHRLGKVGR

**Q.** `Cc1ccc(C(=O)Nc2ccc(CN3CCN(C)CC3)c(C(F)(F)F)c2)cc1C#Cc1cnc2cccnn12` [PON] was tested. Which “Average LFQ PON_WT” value [1] did it give?
**A.** Its value is 20.4304.

**Q.** What about the “Average LFQ PON_WT” value [2] of the same compound?
**A.** The value was 20.1996.

**Q.** What about the “Average LFQ PON_WT” value [3] of the same compound?
**A.** The value was 23.8993.

**Q.** What about the “Average LFQ PON_WT” value [4] of the same compound?
**A.** The value was 23.2725.

**Q.** And the “Average LFQ PON_WT” value [5]?
**A.** The value was 19.934.

**Q.** What about the “Average LFQ PON_WT” value [6] of the same compound?
**A.** The value was 23.8341.

**Q.** What about the “Average LFQ PON_WT” value [7] of the same compound?
**A.** Its value is 23.7594.

**Q.** And the “Average LFQ PON_WT” value [8]?
**A.** The value was 20.7048.

**Q.** And the “Average LFQ PON_WT” value [9]?
**A.** Its value is 19.3053.

**Q.** What about the “Average LFQ PON_WT” value [10] of the same compound?
**A.** Its value is 23.4188.

**Q.** And the “Average LFQ PON_WT” value [11]?
**A.** The value was 21.1431.

**Q.** What about the “Average LFQ PON_WT” value [12] of the same compound?
**A.** Its value is 21.283.

**Q.** And the “Average LFQ PON_WT” value [13]?
**A.** The value was 29.7769.

**Q.** What about the “Average LFQ PON_WT” value [14] of the same compound?
**A.** The value was 26.1635.

**Q.** And the “Average LFQ PON_WT” value [15]?
**A.** The value was 19.6049.

**Q.** What about the “Average LFQ PON_WT” value [16] of the same compound?
**A.** Its value is 25.081.

**Q.** And the “Average LFQ PON_WT” value [17]?
**A.** Its value is 19.8524.

**Q.** And the “Average LFQ PON_WT” value [18]?
**A.** The value was 20.865.

**Q.** And the “Average LFQ PON_WT” value [19]?
**A.** Its value is 20.002.
